According to the METLIN SMRT retention time set (Domingo-Almenara et al. 2019):

Experiment: gradient 5% acetonitrile 3 min, to 50% in 2 min, to 85% in 15 min, held 3 min, 100 µL/min
Details: column: Zorbax Extend-C18 2.1 x 50 mm; eluents: water / acetonitrile, 0.1% formic acid
Procedure, shortened: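 Mixtures of ~100 pure standards were chromatographed on a Zorbax Extend-C18 column (2.1 × 50 mm, 1.8 μm) at 100 μL/min using water and acetonitrile, each with 0.1% formic acid. Detection used a quadrupole time-of-flight mass spectrometer in positive and negative ionization mode, and data collection spanned 3 months. Retention time was obtained from adduct peaks picked computationally and each checked manually.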

Structure (SMILES) | RP-LC retention time [s]
CCc1ccc(CNc2nc3ccccc3n2CCN(CC)CC)cc1 | 558
CCNC(=O)Nc1ccc(OCC(=O)NC(C)c2ccc(OC)c(OC)c2)nc1 (stereo unspecified) | 644
COc1ccc2[nH]cc(CCNC(=O)c3cc(C)nc4c3c(=O)n(C)c(=O)n4C)c2c1 | 699
Cc1nc(C)c(C(=O)Nc2cccc(Cl)c2C)o1 | 731
CCOc1ccc(-c2csc3c(=O)n(CC(C)C)cnc23)cc1OCC | 1100

More lines, now with the values ahead:

RP-LC retention time [s] | Structure (SMILES)
982 | CS(=O)(=O)Nc1ccc([N+](=O)[O-])cc1OC1CCCCC1
1100 | COC(=O)c1c(C)c(C(=O)C(C)N(CCC(C)C)C(=O)c2cccc(F)c2)c(C)n1C (stereo unspecified)
683 | Cc1[nH]c2ccccc2c1S(=O)(=O)CCNC(=O)Nc1cccs1
604 | CCC(=O)N1CCc2sc(C(=O)NC3CCN(Cc4ccccc4)CC3)cc2C1
652 | NC(=O)C1CCCN(c2cccc3c2C(=O)c2ccccc2C3=O)C1 (stereo unspecified)
748 | O=C(Cn1ccc2ccccc21)Nc1nccs1
